Assay results taken from ChEMBL document CHEMBL1821627, “Medicinal chemistry as a conduit for the modulation of quorum sensing” (J Med Chem, 2010).
pEC50, pIC50: −log10 of the molar value. Each block holds one compound with its values, some of them ahead of it. Where a SMILES comes first, the peptide text is derived from it. Bridges are numbered along the chain shown (N, C = ends). [ ]: non-standard residue; d: D form. NMeF = CN[C@@H](Cc1ccccc1)C(=O)O; NMeS = CN[C@@H](CO)C(=O)O

How the values were obtained:
[1] = Inhibition of quorum sensing regulated bioluminescence in Vibrio harveyi
[2] = Inhibition of quorum sensing Salmonella Typhimurium by beta-galactosidase transcription assay in presence of 50 uM DPD; parameters: species or system Salmonella enterica subsp. enterica serovar Typhimurium
[3] = Inhibition of Staphylococcus aureus Quorum sensing system AgrC-II activation after 60 to 90 minutes by beta-lactamase reporter assay; details: for pIC50: read-out: IC50
[4] = Inhibition of Staphylococcus aureus Quorum sensing system AgrC-I activation after 60 to 90 minutes by beta-lactamase reporter assay; details: for pIC50: read-out: IC50
[5] = Inhibition of autoinducer-stimulated quorum sensing regulated bioluminescence in Vibrio fischeri by luminescence assay; parameters: species or system Aliivibrio fischeri
[6] = system: Vibrio harveyi; assay: Induction of quorum sensing regulated bioluminescence in Vibrio harveyi by luminescence assay
[7] = system: Salmonella enterica subsp. enterica serovar Typhimurium; assay: Ratio of compound IC50 to DPD IC50 for Salmonella Typhimurium quorum sensing system
[8] = Induction of quorum sensing activity in Pseudomonas aeruginosa assessed as maximal induction of LasR-dependent yellow fluorescent protein emission by luminescence assay
[9] = target: T1, Transcriptional activator protein LasR (Pseudomonas aeruginosa (strain ATCC 15692 / PAO1 / 1C / PRS 101 / LMG12228), UniProt P25084); assay: Antagonist activity at Pseudomonas aeruginosa LasR receptor expressed in Escherichia coli in presence of 7.5 nM natural auto-inducer 3-oxo-C12-HSL; assay type: functional
T1 sequence (P25084 whole entry): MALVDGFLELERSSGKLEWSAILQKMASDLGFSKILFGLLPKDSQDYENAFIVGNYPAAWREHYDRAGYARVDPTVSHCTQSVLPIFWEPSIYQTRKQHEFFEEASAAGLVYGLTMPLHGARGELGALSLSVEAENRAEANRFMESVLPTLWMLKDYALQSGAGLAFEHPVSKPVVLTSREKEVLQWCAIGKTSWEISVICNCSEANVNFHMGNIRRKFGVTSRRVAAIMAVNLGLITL

[10] = target: T1, Transcriptional activator protein LasR; assay: Agonist activity at Pseudomonas aeruginosa LasR cognate receptor expressed in Escherichia coli harboring pKDT17 assessed as activation of lasB expression by LacZ reporter gene assay; assay type: functional
[11] = target: T1, Transcriptional activator protein LasR; assay: Antagonist activity at Pseudomonas aeruginosa LasR receptor assessed as inhibition of bioluminescence by reporter gene assay; assay type: functional
[12] = system: Chromobacterium violaceum; assay: In vivo inhibition of violacein production in Chromobacterium violaceum; assay type: functional, organism-based
[13] = target: T2, Autoinducer 1 sensor kinase/phosphatase LuxN (Vibrio harveyi, UniProt P0C5S6); assay: Inhibition of LuxN-dependent bioluminescence in Vibrio harveyi
T2 sequence (P0C5S6 whole entry): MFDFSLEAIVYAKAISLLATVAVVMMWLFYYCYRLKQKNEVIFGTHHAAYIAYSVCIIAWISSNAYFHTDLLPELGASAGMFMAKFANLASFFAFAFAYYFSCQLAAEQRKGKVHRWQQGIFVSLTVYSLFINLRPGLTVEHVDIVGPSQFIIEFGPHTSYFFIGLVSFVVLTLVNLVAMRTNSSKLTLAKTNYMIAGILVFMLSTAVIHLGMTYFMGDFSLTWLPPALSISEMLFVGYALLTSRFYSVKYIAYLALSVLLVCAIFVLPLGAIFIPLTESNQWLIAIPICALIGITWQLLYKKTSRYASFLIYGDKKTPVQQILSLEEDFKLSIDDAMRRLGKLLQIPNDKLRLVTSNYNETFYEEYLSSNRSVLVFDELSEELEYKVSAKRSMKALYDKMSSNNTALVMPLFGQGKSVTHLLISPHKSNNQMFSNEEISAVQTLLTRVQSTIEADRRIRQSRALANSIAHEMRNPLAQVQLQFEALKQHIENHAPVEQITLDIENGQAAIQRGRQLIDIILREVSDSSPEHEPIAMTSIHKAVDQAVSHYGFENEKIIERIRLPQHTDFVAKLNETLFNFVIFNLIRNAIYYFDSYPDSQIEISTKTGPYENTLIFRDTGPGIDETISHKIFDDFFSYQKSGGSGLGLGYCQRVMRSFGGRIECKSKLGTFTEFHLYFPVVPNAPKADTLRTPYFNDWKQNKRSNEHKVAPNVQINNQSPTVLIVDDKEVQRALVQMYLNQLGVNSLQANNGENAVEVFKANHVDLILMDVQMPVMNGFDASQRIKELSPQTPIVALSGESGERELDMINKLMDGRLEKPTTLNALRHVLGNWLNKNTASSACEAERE

[14] = target: T3, Transcriptional activator protein LuxR (Aliivibrio fischeri, UniProt P12746); assay: Antagonist activity at Vibrio fischeri luxR receptor in presence of 5 uM 3-oxo-C6-HSL; assay type: functional
T3 sequence (P12746 whole entry): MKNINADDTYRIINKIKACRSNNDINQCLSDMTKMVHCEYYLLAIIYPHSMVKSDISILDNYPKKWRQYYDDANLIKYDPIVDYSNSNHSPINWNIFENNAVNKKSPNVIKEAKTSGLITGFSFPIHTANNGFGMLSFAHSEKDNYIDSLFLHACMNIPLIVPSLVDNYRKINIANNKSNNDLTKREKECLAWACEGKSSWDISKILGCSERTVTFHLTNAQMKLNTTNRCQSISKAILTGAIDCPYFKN

pIC50 [1]: 4.92
Compound: O=c1ccc2ccc(O)c(O)c2o1 [DAPHNETIN]

pIC50 [2]: 4.69
Compound: [N-]=[N+]=NCCCCC(=O)C(=O)[C@@H](O)CO

pIC50 [1]: 5.05
Compound: Cc1ccc(B(O)O)cc1F

pIC50 [3]: 5.10
pIC50 [4]: 6.19
Compound: CC(=O)N[C@H]1CSC(=O)[C@H](Cc2ccccc2)NC(=O)[C@H](CC(C)C)NC(=O)[C@H](CO)NC(=O)[C@H](CO)N(C)C1=O (Ac-C[NMeS]SLF; thioester 1-C)

Compound: CCCC(=O)CC(=O)N[C@H]1CCSC1=O
pIC50 [5]: 6.88

pEC50 [6]: 4.52
Compound: O=C1[C@@H](O)COC1(O)C(F)(F)F (stereo partly specified)

pIC50 [1]: 4.46
Compound: NC(=S)CS(=O)(=O)c1ccccn1

pIC50 [2]: < 4.30
Compound: O=C(CCc1ccccc1)C(=O)[C@@H](O)CO

pIC50 [1]: 5.06
Compound: CCOC(=O)CS(=O)(=O)c1ccc(-c2ccccc2)cc1

pIC50 [2]: 5.28
Ratio IC50 [7]: < 10
Compound: CCCC(=O)C(=O)[C@@H](O)CO

pIC50 [3]: 5.94
pIC50 [4]: 6.72
Compound: CC(=O)N[C@H]1CSC(=O)[C@H](Cc2ccccc2)NC(=O)[C@H](CC(C)C)NC(=O)[C@H](CO)NC(=O)CNC1=O (Ac-CGSLF; thioester 1-C)

pIC50 [3]: 6.71
pIC50 [4]: 7.40
Compound: CC(=O)N[C@H]1CSC(=O)[C@H](Cc2ccccc2)NC(=O)[C@H](CC(C)C)NC(=O)CNC(=O)[C@H](CO)NC1=O (Ac-CSGLF; thioester 1-C)

pEC50 [8]: 7.85
Compound: O=C(Oc1c(Br)cc(Br)cc1CNC(=O)c1ccccc1[N+](=O)[O-])c1ccccc1Cl

pIC50 [3]: 6.62
pIC50 [4]: 7.11
Compound: CC(=O)N[C@H]1CSC(=O)[C@H](Cc2ccccc2)NC(=O)[C@H](CC(C)C)NC(=O)CNC(=O)CNC1=O (Ac-CGGLF; thioester 1-C)

Compound: O=C(Cc1ccc(I)cc1)N[C@H]1CCOC1=O
pIC50 [9]: 5.76

Compound: CCCCCCCCCC(O)CC(=O)N[C@H]1CCOC1=O (stereo partly specified)
pEC50 [10]: 7.27

IC50 [3]: Not Active
IC50 [4]: Not Active
Compound: CC(=O)N[C@H]1CSC(=O)[C@H](Cc2ccccc2)N(C)C(=O)[C@H](CC(C)C)NC(=O)[C@H](CO)NC(=O)[C@H](CO)NC1=O (Ac-CSSL[NMeF]; thioester 1-C)

Compound: O=C(CCCCCCCCN=C=S)CC(=O)N[C@H]1CCOC1=O
pIC50 [11]: 3.52

Compound: CCCCCCCCC(=O)N[C@H]1CCOC1=O
pIC50 [5]: 7.91

pIC50 [2]: < 4.30
Compound: CCC(=O)C(=O)[C@@H](O)CO

pIC50 [1]: 4.23
Compound: Oc1ccccc1O [CATECHOL]

pIC50 [12]: 6.53
Compound: O=C(CCCOc1ccc(Cl)cc1)NC1CCOC1=O (stereo unspecified)

pIC50 [1]: 5.30
Compound: COC(=O)c1ccc(B(O)O)cc1

pIC50 [1]: 4.66
Compound: CCOC(=S)CS(=O)(=O)c1cccs1

pIC50 [3]: 5.98
pIC50 [4]: 6.50
Compound: CC(=O)N[C@H]1CSC(=O)[C@H](Cc2ccccc2)NC(=O)[C@H](CC(C)C)NC(=O)[C@H](CO)N(C)C(=O)[C@H](CO)NC1=O (Ac-CS[NMeS]LF; thioester 1-C)

Compound: CC(=O)N1CCc2ccc(S(=O)(=O)NC(CC(C)C)C(=O)NCc3ccc(Cl)cc3)cc21 (stereo unspecified)
pIC50 [13]: 5.57

pIC50 [14]: 6.21
Compound: O=C(Cc1ccc(C(F)(F)F)cc1)N[C@H]1CCOC1=O

pIC50 [14]: 6.11
Compound: CCCCCCCC(=O)N[C@H]1CCOC1=O

pIC50 [1]: 3.80
Compound: CCOC(=O)CS(=O)(=O)c1ccc(-c2ccc3c(c2)OCCO3)cc1

pIC50 [1]: 5.40
Compound: O=Cc1ccc(O)c(O)c1O

pIC50 [1]: 5.40
Compound: O=C(c1ccccc1)c1ccc(O)c(O)c1O

Compound: O=C(CCc1ccc(Br)cc1)N[C@H]1CCOC1=O
pIC50 [9]: 6.47

Compound: CCCCC/C=C/CCC(=O)CC(=O)N[C@H]1CCOC1=O
pEC50 [10]: 8.00

pIC50 [1]: 5.24
Compound: CCOC(=S)CS(=O)(=O)c1ccc(-c2ccccc2)cc1
